Assay results published in ChEMBL document CHEMBL1138603, “New Labdane diterpenes as intestinal alpha-glucosidase inhibitor from antihyperglycemic extract of Hedychium spicatum (Ham. Ex Smith) rhizomes” (Bioorg Med Chem Lett, 2009).
The source made the active and inactive calls. The calls are words filed in the database; no cut-off is given here.

target: not listed separately; assay: Inhibition of rat intestinal alpha-glucosidase activity

| IC50 [µM] | SMILES |
| --- | --- |
| 23.8 | C[C@H]1O[C@H](O[C@H]2[C@H](O)[C@@H](O)[C@@H](O[C@H]3[C@H](O)[C@@H](O)C(O)O[C@@H]3CO)O[C@@H]2CO)[C@H](O)[C@@H](O)[C@@H]1N[C@H]1C=C(CO)[C@@H](O)[C@H](O)[C@H]1O (stereo partly specified) [ACARBOSE] |
| 34.1 | CC1=CC(=O)[C@H]2C(C)(C)CCC[C@]2(C)[C@H]1/C=C/C1=CC(=O)O[C@H]1O [SPICATANOL] |

organism: Rattus norvegicus; assay: Inhibition of rat intestinal alpha-glucosidase activity at 100 ugmL

| inhibition | SMILES |
| --- | --- |
| 35.1% | CC1=CC(=O)[C@H]2C(C)(C)CCC[C@]2(C)[C@H]1/C=C/C1=CC(=O)OC1 |
| 55.6% | CC1=CC(=O)[C@H]2C(C)(C)CCC[C@]2(C)[C@H]1/C=C/c1ccoc1 |
| 15.1% | CC1(C)CCC[C@]2(C)[C@@H](/C=C/c3ccoc3)C(CO)=CC(=O)[C@@H]12 |
| 89.5% | CC1=CC(=O)[C@H]2C(C)(C)CCC[C@]2(C)[C@H]1/C=C/C1=CC(=O)O[C@H]1O [SPICATANOL] |
| 11.3% | C=C1[C@@H](O)CC2C(C)(C)CCC[C@]2(C)[C@H]1C/C=C1\CCOC1=O (stereo partly specified) |
| 54.1% | CO[C@@H]1OC(=O)C=C1/C=C/[C@H]1C(C)=CC(=O)[C@H]2C(C)(C)CCC[C@]12C |
| inactive | C=C1CC[C@H]2C(C)(C)CCC[C@]2(C)[C@H]1C |
| 13.5% | CC1=C(O)C(=O)[C@H]2C(C)(C)CCC[C@]2(C)[C@H]1/C=C/c1ccoc1 |
| 25.7% | CC(=O)OC1=C(C)[C@H](/C=C/c2ccoc2)[C@@]2(C)CCCC(C)(C)[C@@H]2C1=O |
